Source: patent publication US7365096B2, “Methods for selectively inhibiting Janus tyrosine kinase 3 (Jak3)” (Board of Regents, The University of Texas System, priority 2002, dated 2008)
“Also recorded” adds a separate entry of the source.

Assays:
Stat5a/b = Stat5a/b DNA binding, EMSA in PHA activated T-cells; type: cell-based, human; settings: increasing concentrations
Experimental: EMSA. Electrophoretic mobility shift assay (EMSA). Drug or vehicle control (DMSO) treated cells were pelleted by centrifugation (20,000×g for 1 min at 4° C.) and subsequently washed in five volumes of 10 mM HEPES, pH 7.9, 10 mM KCl, 1.5 mM MgCl2, 0.5 mM DTT, […], 5 μg/ml aprotinin, 1 μg/ml pepstatin A and 2 μg/ml leupeptin, centrifuged, then lysed in the same buffer supplemented with 1% NP-40 and incubated for 20 min on ice. The nuclei-containing pellet was resuspended in equal volumes of low salt buffer (10 mM HEPES, 25% glycerol, 1.5 mM MgCl2, 20 mM KCl, 0.5 mM DTT, 0.2 mM EDTA and protease inhibitors) and high salt buffer (low salt buffer containing 800 mM KCl). This fraction was then isolated by centrifugation at 4° C. for 10 min and supernatants saved as nuclear protein extract and stored at −70° C. Gel mobility shift assays were performed to detect Stat5a/b DNA binding activity using a Stat5 DNA binding sequence corresponding to the promoter of the β-casein gene (5′-[…]-3′) or an NF-kB binding element (5′-[…]-3′). Both probes were end-labeled with [^32P]dATP. […]
(§1) In FIG. 9A, it can be seen that NC1153 inhibits Jak3 driven transcription factor-Stat5a/b in PHA activated T-cells treated with increasing concentrations of NC1153 in a dose dependent manner as measured via EMSA analysis (upper panel). […]

[1] = system: Jak2/Stat5a signaling pathway; assay: Prolactin-stimulated Jak2/Stat5a signaling in rat Nb2 cells (phosphotyrosine Western blot); type: cell-based; settings: increasing concentration, PRL stimulated
Experimental: Solubilization of membrane proteins, immunoprecipitation, and Western blot analysis. Frozen cell pellets were thawed on ice and solubilized in 1% TX-100 lysis buffer (10^8 cells/ml) and clarified by centrifugation, as previously described.^16 For human T-cells, supernates were incubated rotating end over end for 2 hours at 4° C. with either 5 μl/ml polyclonal rabbit antisera raised against peptides derived from the unique COOH-termini of Jak3 (amino acid [a.a.] 1104-1124), carboxyl termini of human Stat5a (a.a. 775-794) or Stat5b (a.a. 777-787).^26 Ab and immunoprecipitated proteins were captured by incubation for 30 minutes with Protein A-Sepharose beads (Pharmacia, Piscataway, N.J.), sedimented for purification, and eluted by boiling in 2×SDS-sample buffer (20% Glycerol, 10% 2-Mercaptoethanol, 4.6% SDS, 0.004% Bromophenol blue in 0.125 M Tris pH 6.8) for 4 minutes. For phosphoMapk assays, approximately 25 μg of total cell lysate was dissociated in SDS-sample buffer and separated on 10% (all others on 7.5%) SDS-PAGE under reducing conditions. […]
as §1

[2] = system: LEW donor or third-party BUF heart allografts; assay: Transplantation tolerance: heart allograft challenge of long-term surviving recipients; type: in vivo, rat; settings: recipients made tolerant with NC1153; n=3
Experimental: ACI rat recipients of LEW kidney allografts were treated for 14 days with NC1153 delivered by daily oral gavage. […] ACI rat recipients of LEW kidney allografts were treated for 7 days and thereafter 3×/week up to 90 days with 160 mg/kg NC1153 delivered by daily oral gavage. […] The mechanism of tolerance was examined when irradiated (400 rads) ACI recipients of LEW heart allografts were adoptively transferred with 30×10^6 purified T cells from tolerant recipients.

[3] = rat, in vivo

CN(C)CC1CCCCCCCCCC(CN(C)C)C1=O (mixture of isomers) [649641P (NC1153)]
Stat5a/b DNA binding (EMSA) (Stat5a/b): inhibits; also recorded: greatly impaired
Stat5a/b DNA binding (EMSA) (Stat5a/b; listed as NC1153): inhibits
Jak2/Stat5a activation by prolactin [1]: fails to inhibit
survival of LEW donor heart allografts in long-term surviving recipients [2]: > 100 days
survival of third-party BUF heart allografts in long-term surviving recipients [2]: 7.0±1.0 days
HDL [3]: increased HDL
HDL, LDL, or TG levels [3]: no effect
TG or LDL levels [3]: without changing TG or LDL levels
overall toxicity conclusion [3]: free of nephrotoxic and myelotoxic effects with mild lipotoxicity on high-fat challenge
peripheral blood counts (PBC) [3]: Neither 648641P nor CsA reduced PBC
